# Source: patent publication US20250195596A1, “COMPOSITION FOR PREVENTING OR TREATING RETINAL DISEASE, CONTAINING CENTELLA ASIATICA EXTRACT” (GENENCELL INC., priority 2018, published 2025)
# Test system: ARPE-19 cells
# Experiment: Cell protection from oxidative stress caused by A2E (MTT)
# Type: cell-based
# Details: ARPE-19, A2E accumulated 3 days, 30 μM, 48 hours, UV 5 minutes; in % (unit assumed)
# Description: To determine the effect of inhibiting macular degeneration, the cell death inhibitory effect of A2E was measured. As test cells, ARPE-19 cells, which are retinal pigment epithelial cells, were used, and the medium, medium composition, and experimental conditions were the same as in Experimental Example 1. ARPE-19 cells were dispensed into a 24-well plate at a concentration of 3×10^4 cells/well and cultured for 24 hours, and then A2E was accumulated at a concentration of 3 µM for 3 days. In order to measure the effect of protecting cells from oxidative stress caused by A2E, the cells were treated with 25 μg/mL, 50 μg/mL, and 100 μg/mL of the 50% alcohol extract of Centella asiatica, and as a positive control, the cells were treated with 30 μM of lutein, which is known to have an inhibitory effect on macular degeneration, and cultured for 48 hours, and after 48 hours, the cells were irradiated with ultraviolet rays using a UV lamp for 5 minutes. The cell growth rate was measured at an absorbance of 570 nm using an MTT reagent, and the absorbance of each test solution was measured and compared with a control not treated with A2E.
smiles,measurement,value
"CC1=C[C@H](O)CC(C)(C)[C@H]1/C=C/C(C)=C/C=C/C(C)=C/C=C/C=C(C)/C=C/C=C(C)/C=C/C1=C(C)C[C@@H](O)CC1(C)C [Lutein, lutein]",cell growth rate compared with a control not treated with A2E,71.5 ± 8.22
